Structures are written as SMILES. Values joined by “and” are separate entries in the source; they are usually repeats but may differ in a detail not shown here. Identical values can stand only once.

What all share (assay): Competitive isoTOP-ABPP, cell lysates
Assay type in all cases: binding

The target in one assay is T1, IDH2 C308 (P48735) (Homo sapiens, UniProt P48735).
T1 sequence (P48735 40-452): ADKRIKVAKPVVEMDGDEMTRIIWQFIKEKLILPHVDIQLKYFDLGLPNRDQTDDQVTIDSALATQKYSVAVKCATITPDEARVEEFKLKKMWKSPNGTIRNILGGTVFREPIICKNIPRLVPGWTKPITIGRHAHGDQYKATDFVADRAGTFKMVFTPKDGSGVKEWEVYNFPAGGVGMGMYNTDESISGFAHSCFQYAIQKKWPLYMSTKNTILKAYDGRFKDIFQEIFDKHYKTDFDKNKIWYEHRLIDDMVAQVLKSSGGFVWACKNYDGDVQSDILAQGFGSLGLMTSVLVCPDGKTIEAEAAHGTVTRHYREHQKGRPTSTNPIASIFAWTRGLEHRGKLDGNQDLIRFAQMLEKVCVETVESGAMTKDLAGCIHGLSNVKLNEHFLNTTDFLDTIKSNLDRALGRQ
As to conditions: for isoTOP-ABPP ratio, P48735_C308: 500 μM, invitro, 231; for isoTOP-ABPP ratio (reactivity profile), P48735_C308: 500 μm in-vitro ramos_231.

For the next assay, the target named is T2, IRF4 C194 (Q15306) (Homo sapiens, UniProt Q15306).
T2 sequence (Q15306 1-451): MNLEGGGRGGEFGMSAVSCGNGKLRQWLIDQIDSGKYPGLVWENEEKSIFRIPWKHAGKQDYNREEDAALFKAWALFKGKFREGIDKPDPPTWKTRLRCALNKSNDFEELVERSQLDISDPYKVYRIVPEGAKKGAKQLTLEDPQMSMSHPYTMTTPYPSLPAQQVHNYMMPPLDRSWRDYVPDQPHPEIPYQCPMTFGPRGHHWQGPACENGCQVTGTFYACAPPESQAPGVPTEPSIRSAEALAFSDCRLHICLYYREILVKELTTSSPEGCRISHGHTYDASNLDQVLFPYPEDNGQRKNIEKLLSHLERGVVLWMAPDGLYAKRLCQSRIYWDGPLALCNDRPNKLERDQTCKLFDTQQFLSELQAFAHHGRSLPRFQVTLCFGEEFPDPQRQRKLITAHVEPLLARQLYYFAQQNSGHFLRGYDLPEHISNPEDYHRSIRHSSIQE
The note with it: for isoTOP-ABPP ratio, Q15306_C194: 500 μM, invitro, ramos; for isoTOP-ABPP ratio (reactivity profile), Q15306_C194: 500 μm in-vitro ramos.

The next assay addresses T3, PDIA6 C55 (Q15084) (Homo sapiens, UniProt Q15084).
T3 sequence (Q15084 20-440): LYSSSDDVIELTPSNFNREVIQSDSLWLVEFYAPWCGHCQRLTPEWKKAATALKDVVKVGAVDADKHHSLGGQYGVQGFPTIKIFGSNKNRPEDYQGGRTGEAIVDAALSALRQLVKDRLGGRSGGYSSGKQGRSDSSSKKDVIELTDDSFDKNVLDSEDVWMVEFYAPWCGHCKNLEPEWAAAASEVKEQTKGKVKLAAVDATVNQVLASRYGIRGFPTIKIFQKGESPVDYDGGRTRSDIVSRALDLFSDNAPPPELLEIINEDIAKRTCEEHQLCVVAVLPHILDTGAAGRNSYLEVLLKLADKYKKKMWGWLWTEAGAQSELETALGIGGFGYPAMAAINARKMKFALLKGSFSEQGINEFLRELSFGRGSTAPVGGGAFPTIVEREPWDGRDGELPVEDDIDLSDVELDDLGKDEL
As to conditions: for isoTOP-ABPP ratio Q15084_C55: 500 μM, invitro.

For another assay, the target named is PRMT1 C109 (Q99873) (Homo sapiens, UniProt Q99873). The note with it: for isoTOP-ABPP ratio, Q99873_C109: 500 μM, invitro.
The next assay addresses T4, UCHL3 C95 (P15374) (Homo sapiens, UniProt P15374).
T4 sequence (P15374 1-230): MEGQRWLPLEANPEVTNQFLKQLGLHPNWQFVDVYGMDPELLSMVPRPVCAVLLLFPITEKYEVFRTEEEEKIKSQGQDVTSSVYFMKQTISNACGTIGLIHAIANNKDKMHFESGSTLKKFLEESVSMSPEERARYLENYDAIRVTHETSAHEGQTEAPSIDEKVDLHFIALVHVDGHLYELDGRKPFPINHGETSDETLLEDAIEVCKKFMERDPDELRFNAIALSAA
The note with it: for isoTOP-ABPP ratio, P15374_C95: 500 μM, invitro, ramos.

Another assay deals with ZNF217 C286 (O75362) (Homo sapiens, UniProt O75362). The note with it: for isoTOP-ABPP ratio O75362_C286: 500 μM, invitro.
Sequence of ZNF217 C286 (O75362) (O75362 whole entry): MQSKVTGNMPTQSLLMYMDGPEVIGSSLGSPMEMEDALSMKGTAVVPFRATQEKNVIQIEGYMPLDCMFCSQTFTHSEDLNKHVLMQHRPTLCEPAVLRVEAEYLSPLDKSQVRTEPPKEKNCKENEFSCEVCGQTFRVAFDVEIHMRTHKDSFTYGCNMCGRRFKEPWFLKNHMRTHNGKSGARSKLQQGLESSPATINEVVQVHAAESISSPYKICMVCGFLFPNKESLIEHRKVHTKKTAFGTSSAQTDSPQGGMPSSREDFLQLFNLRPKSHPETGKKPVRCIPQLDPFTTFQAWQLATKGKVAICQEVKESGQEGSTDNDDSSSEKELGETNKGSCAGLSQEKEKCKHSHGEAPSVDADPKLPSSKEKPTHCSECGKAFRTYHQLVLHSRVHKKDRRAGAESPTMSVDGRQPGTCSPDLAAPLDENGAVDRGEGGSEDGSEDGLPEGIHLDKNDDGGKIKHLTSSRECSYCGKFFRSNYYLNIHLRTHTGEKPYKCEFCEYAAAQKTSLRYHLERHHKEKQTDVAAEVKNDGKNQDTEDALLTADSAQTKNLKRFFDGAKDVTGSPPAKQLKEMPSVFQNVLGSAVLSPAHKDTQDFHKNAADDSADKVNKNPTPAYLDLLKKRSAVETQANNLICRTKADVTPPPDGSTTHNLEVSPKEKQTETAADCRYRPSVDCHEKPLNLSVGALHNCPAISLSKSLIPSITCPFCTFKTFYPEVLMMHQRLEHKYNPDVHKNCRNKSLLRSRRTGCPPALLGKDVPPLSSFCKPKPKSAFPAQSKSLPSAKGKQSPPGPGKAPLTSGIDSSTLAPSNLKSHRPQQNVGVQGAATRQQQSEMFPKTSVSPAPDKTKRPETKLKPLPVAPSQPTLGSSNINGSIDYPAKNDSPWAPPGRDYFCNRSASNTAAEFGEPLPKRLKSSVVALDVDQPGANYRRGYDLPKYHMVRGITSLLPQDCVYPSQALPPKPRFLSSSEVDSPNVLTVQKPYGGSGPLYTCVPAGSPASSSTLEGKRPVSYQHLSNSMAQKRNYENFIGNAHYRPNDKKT

Sequence of PRMT1 C109 (Q99873) (Q99873 whole entry): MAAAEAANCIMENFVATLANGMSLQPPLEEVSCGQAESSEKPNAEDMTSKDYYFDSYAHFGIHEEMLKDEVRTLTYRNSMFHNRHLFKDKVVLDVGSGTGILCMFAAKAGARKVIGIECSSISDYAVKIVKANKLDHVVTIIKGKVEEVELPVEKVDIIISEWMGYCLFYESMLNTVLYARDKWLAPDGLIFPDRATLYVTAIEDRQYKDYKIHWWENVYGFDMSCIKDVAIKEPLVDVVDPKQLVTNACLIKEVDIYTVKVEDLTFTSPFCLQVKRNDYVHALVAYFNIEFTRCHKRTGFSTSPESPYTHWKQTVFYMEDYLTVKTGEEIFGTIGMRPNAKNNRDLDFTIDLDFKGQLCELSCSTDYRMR

Regarding `O=C(CCl)NC(=O)NC12CC3CC(CC(C3)C1)C2` [compound 12], at IDH2 C308 (P48735), the “isoTOP-ABPP ratio, P48735_C308” value was determined as 1.7. Besides, the “isoTOP-ABPP ratio, Q15306_C194” value at IRF4 C194 (Q15306) was 3.7. For the same compound, the “isoTOP-ABPP ratio Q15084_C55” value is given as 3.7 at PDIA6 C55 (Q15084) (231) and 3.1 at PDIA6 C55 (Q15084) (ramos). Besides, the “isoTOP-ABPP ratio, Q99873_C109” value at PRMT1 C109 (Q99873) (231) was 1.4; at PRMT1 C109 (Q99873) (ramos), 1.3. The “isoTOP-ABPP ratio, P15374_C95” value at UCHL3 C95 (P15374) is listed as 0.5. For the same compound, the “isoTOP-ABPP ratio O75362_C286” value at ZNF217 C286 (O75362) (231) was found to be 1.0.
On to `O=C(CCl)NCCc1c[nH]c2ccccc12` [compound 13], for which, on IDH2 C308 (P48735), the “isoTOP-ABPP ratio, P48735_C308” value came to 1.1. In addition, the “isoTOP-ABPP ratio, Q15306_C194” value on IRF4 C194 (Q15306) stood at 1.1. Moreover, the “isoTOP-ABPP ratio Q15084_C55” value stood at 1.9 on PDIA6 C55 (Q15084) (231) and 1.1 on PDIA6 C55 (Q15084) (ramos). Besides, the “isoTOP-ABPP ratio, Q99873_C109” value is reported as 1.0 on PRMT1 C109 (Q99873) (231) and 0.9 on PRMT1 C109 (Q99873) (ramos). Also, the “isoTOP-ABPP ratio, P15374_C95” value on UCHL3 C95 (P15374) stood at 0.8. Moreover, the “isoTOP-ABPP ratio O75362_C286” value on ZNF217 C286 (O75362) (231) and on ZNF217 C286 (O75362) (ramos) was 0.9 in each case.
`O=C(CCl)N1CCC(C(O)(c2ccccc2)c2ccccc2)CC1` [compound 20]: the “isoTOP-ABPP ratio (reactivity profile), P48735_C308” value on IDH2 C308 (P48735) was 0.5. Moreover, the “isoTOP-ABPP ratio (reactivity profile), Q15306_C194” value at IRF4 C194 (Q15306) was 3.0. In addition, the results for the “isoTOP-ABPP ratio (reactivity profile), Q15084_C55” value at PDIA6 C55 (Q15084) (500 μm in-vitro ramos) and at PDIA6 C55 (Q15084) (500 μm in-vitro ramos_231) were 2.0 and 1.7, respectively. The entries for the “isoTOP-ABPP ratio (reactivity profile), Q99873_C109” value at PRMT1 C109 (Q99873) (500 μm in-vitro ramos) and at PRMT1 C109 (Q99873) (500 μm in-vitro ramos_231) were 2.2 and 1.9, respectively. Besides, the “isoTOP-ABPP ratio (reactivity profile), P15374_C95” value is given as 0.9 on UCHL3 C95 (P15374) (500 μm in-vitro ramos) and 1.0 at UCHL3 C95 (P15374) (500 μm in-vitro ramos_231). For the same compound, the “isoTOP-ABPP ratio (reactivity profile), O75362_C286” value on ZNF217 C286 (O75362) (500 μm in-vitro ramos_231) amounted to 1.3.
Consider `O=C(CCl)NC12CC3CC(CC(C3)C1)C2` [compound 21], for which the “isoTOP-ABPP ratio (reactivity profile), P48735_C308” value at IDH2 C308 (P48735) is listed as 0.6. In addition, the “isoTOP-ABPP ratio (reactivity profile), Q15306_C194” value at IRF4 C194 (Q15306) is 1.7. In addition, the “isoTOP-ABPP ratio (reactivity profile), Q15084_C55” value at PDIA6 C55 (Q15084) (500 μm in-vitro ramos) was found to be 2.1; on PDIA6 C55 (Q15084) (500 μm in-vitro ramos_231) it was 1.1. Moreover, the entries for the “isoTOP-ABPP ratio (reactivity profile), Q99873_C109” value on PRMT1 C109 (Q99873) (500 μm in-vitro ramos) and on PRMT1 C109 (Q99873) (500 μm in-vitro ramos_231) were 1.5 and 1.1, respectively. Also, the “isoTOP-ABPP ratio (reactivity profile), P15374_C95” value on UCHL3 C95 (P15374) (500 μm in-vitro ramos_231) was determined as 1.1. Besides, on ZNF217 C286 (O75362) (500 μm in-vitro ramos_231), the “isoTOP-ABPP ratio (reactivity profile), O75362_C286” value is recorded as 0.9.
Regarding `CC(C)CCOCCNC(=O)CCl` [compound 27], the “isoTOP-ABPP ratio (reactivity profile), P48735_C308” value on IDH2 C308 (P48735) was 1.9 and 1.0. Further, the “isoTOP-ABPP ratio (reactivity profile), Q15306_C194” value on IRF4 C194 (Q15306) is reported as 1.0. The “isoTOP-ABPP ratio (reactivity profile), Q15084_C55” value on PDIA6 C55 (Q15084) (500 μm in-vitro ramos) is 1.2; on PDIA6 C55 (Q15084) (500 μm in-vitro ramos_231), 0.8 and 1.1. The “isoTOP-ABPP ratio (reactivity profile), Q99873_C109” value is 1.0 on PRMT1 C109 (Q99873) (500 μm in-vitro ramos); 0.7 and 0.9 at PRMT1 C109 (Q99873) (500 μm in-vitro ramos_231). Further, the “isoTOP-ABPP ratio (reactivity profile), P15374_C95” value came out at 1.0 at UCHL3 C95 (P15374) (500 μm in-vitro ramos) and 0.4 at UCHL3 C95 (P15374) (500 μm in-vitro ramos_231). Moreover, the “isoTOP-ABPP ratio (reactivity profile), O75362_C286” value on ZNF217 C286 (O75362) (500 μm in-vitro ramos) was found to be 1.0.
With `COc1ccccc1OCCNC(=O)CCl` [compound 28], the “isoTOP-ABPP ratio (reactivity profile), P48735_C308” value at IDH2 C308 (P48735) is recorded as 0.9. Moreover, the “isoTOP-ABPP ratio (reactivity profile), Q15306_C194” value at IRF4 C194 (Q15306) is recorded as 1.1. In addition, the “isoTOP-ABPP ratio (reactivity profile), Q15084_C55” value at PDIA6 C55 (Q15084) (500 μm in-vitro ramos) is listed as 1.5; on PDIA6 C55 (Q15084) (500 μm in-vitro ramos_231) it was 1.1. Further, the “isoTOP-ABPP ratio (reactivity profile), Q99873_C109” value is 1.1 on PRMT1 C109 (Q99873) (500 μm in-vitro ramos) and 0.8 at PRMT1 C109 (Q99873) (500 μm in-vitro ramos_231). For the same compound, the “isoTOP-ABPP ratio (reactivity profile), P15374_C95” value on UCHL3 C95 (P15374) (500 μm in-vitro ramos) stood at 0.9; at UCHL3 C95 (P15374) (500 μm in-vitro ramos_231) it was 1.1. Besides, the “isoTOP-ABPP ratio (reactivity profile), O75362_C286” value at ZNF217 C286 (O75362) (500 μm in-vitro ramos) and at ZNF217 C286 (O75362) (500 μm in-vitro ramos_231) was 1.0 each time.

These data come from US10670605B2, “Cysteine reactive probes and uses thereof” (The Scripps Research Institute, priority 2015, dated 2020).
